Measurements reported in patent US8476283B2, “[6,5]—bicyclic GPR119 G protein-coupled receptor agonists” (Bristol-Myers Squibb Company, priority 2007, dated 2013).

Molecular target: T1, GPR119 (Homo sapiens, UniProt Q8TDV5)
T1 construct: expressed in transfected cells; host or cells: Flp-In-T-REx 293
T1 sequence (Q8TDV5 1-335): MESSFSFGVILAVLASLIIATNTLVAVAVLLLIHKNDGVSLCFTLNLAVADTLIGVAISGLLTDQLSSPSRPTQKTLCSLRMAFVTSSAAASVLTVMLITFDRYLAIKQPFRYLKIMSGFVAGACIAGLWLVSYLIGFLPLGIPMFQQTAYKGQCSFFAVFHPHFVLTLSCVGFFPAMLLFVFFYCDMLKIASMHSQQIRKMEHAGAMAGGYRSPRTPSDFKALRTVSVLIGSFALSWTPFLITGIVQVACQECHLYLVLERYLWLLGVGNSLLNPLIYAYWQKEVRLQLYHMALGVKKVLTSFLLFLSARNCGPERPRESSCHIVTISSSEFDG
Assay: Human Tet-Inducible cAMP Assay (hEC50, Table 1)
Assay type: cell-based
Parameters: IA: scale not given here
Settings: for IA: IA as printed beside hEC50 (not defined in the text); for EC50: human GPR119 agonist activity, cAMP
Method: The in vitro modulation of GPR119 was determined as follows.
Human Tet-Inducible cAMP Assay
Cell lines using the Flp-In-T-REx 293 tetracycline inducible gene expression system are cultured in culture medium comprising the following components: DMEM#11965, 10% FBS, 2 mM L-glutamine, 200 ug/ml Hygromycin B, and 15 ug/ml blasticidin.
For cAMP assays, cells are plated on 96 well plates (e.g., BD Falcon: REF 353948, black side, clear bottom, TC surface) at a density of about 4.5×10^4 cells per well in growth medium containing 1.0 ug/ml tetracycline (1.0 mg/ml stock). The cells are then incubated for 48 hours at 37° C.
Following the incubation, the growth medium is removed from the wells and the wells rinsed (once) with the assay buffer included in the Hit Hunter cAMP kit (100 μl/well). Following the wash, 20 μl of assay buffer is added to each well, followed by addition of 10 μl of a 3× concentration compound working solution. The solution is then mixed. The final concentration range of compound is from about 10^−5M to about 10^−11M. The reagents are then incubated at 37° C. at 5% CO2 for 1 hour.
The manufacturer's protocol may be followed for cAMP determination. The Hit Hunter cAMP kit protocol is outlined for the HIT-T15 cAMP assays described above.

| SMILES | IA | EC50 |
| --- | --- | --- |
| CC(C)(C)OC(=O)N1CCC(n2nnc3c(Nc4ccc(S(C)(=O)=O)cc4F)nccc32)CC1 [Example 1, tert-Butyl 4-(4-(2-fluoro-4-(methylsulfonyl)phenylamino)-1H-[1,2,3]triazolo[4,5-c]pyridin-1-yl)piperidine-1-carboxylate] | 0.55 | 1390 nM |
| CC(C)OC(=O)N1CCC(n2cnc3c(Nc4ccc(S(C)(=O)=O)cc4F)ncnc32)CC1 [Example 10, iso-Propyl 4-(6-(2-fluoro-4-(methylsulfonyl)phenylamino)-9H-purin-9-yl)piperidine-1-carboxylate] | 0.79 | 407 nM |
| CC(C)(C)OC(=O)N1CCC(n2nnc3c(Nc4ccc(C#N)cc4Cl)nccc32)CC1 [Example 5, tert-Butyl 4-(4-(2-chloro-4-cyanophenylamino)-1H-[1,2,3]triazolo[4,5-c]pyridin-1-yl)piperidine-1-carboxylate] | 0.27 | 411 nM |
| CC(C)(C)OC(=O)N1CCC(n2nnc3c(Oc4ccc(S(C)(=O)=O)cc4)nccc32)CC1 [Example 2, tert-Butyl 4-(4-(4-(methylsulfonyl)phenoxy)-1H-[1,2,3]triazolo[4,5-c]pyridin-1-yl)piperidine-1-carboxylate] | 0.29 | 3550 nM |
| Cc1ncccc1Oc1ncnc2c1cnn2C1CCN(C(=O)OC(C)C)CC1.Cl [Example 18, Isopropyl 4-(4-(2-methylpyridin-3-yloxy)-1H-pyrazolo[3,4-d]pyrimidin-1-yl)piperidine-1-carboxylate, hydrochloride salt] | 0.17 | 2720 nM |
| CS(=O)(=O)c1ccc(Nc2ncnc3c2cnn3C2CCN(c3ncccn3)CC2)c(F)c1 [Example 14, N-(2-Fluoro-4-(methylsulfonyl)phenyl)-1-(1-(pyrimidin-2-yl)piperidin-4-yl)-1H-pyrazolo[3,4-d]pyrimidin-4-amine] | 0.76 | 545 nM |
| Cc1ncccc1Oc1ncnc2c1cnn2C1CCN(C(=O)OCc2ccccc2)CC1.Cl [Example 17, Benzyl 4-(4-(2-methylpyridin-3-yloxy)-1H-pyrazolo[3,4-d]pyrimidin-1-yl)piperidine-1-carboxylate, hydrochloride salt] | 0.31 | 1900 nM |
| CC(C)OC(=O)N1CCC(n2ncc3c(Oc4cccnc4C#N)ncnc32)CC1 [Example 19, Isopropyl 4-(4-(2-cyanopyridin-3-yloxy)-1H-pyrazolo[3,4-d]pyrimidin-1-yl)piperidine-1-carboxylate] | 0.13 | 505 nM |

Stronger by EC50, values ahead:

| IA | EC50 | SMILES |
| --- | --- | --- |
| 0.81 | 367 nM | CS(=O)(=O)c1ccc(Nc2ncnc3c2ncn3C2CCN(c3ncccn3)CC2)c(F)c1 [Example 11, N-(2-Fluoro-4-(methylsulfonyl)phenyl)-9-(1-(pyrimidin-2-yl)piperidin-4-yl)-9H-purin-6-amine] |
| 0.69 | 308 nM | CC(C)OC(=O)N1CCC(n2ncc3c(Nc4ccc(S(C)(=O)=O)cc4F)ncnc32)CC1 [Example 13, Isopropyl 4-(4-(2-fluoro-4-(methylsulfonyl)phenylamino)-1H-pyrazolo[3,4-d]pyrimidin-1-yl)piperidine-1-carboxylate] |
| 0.70 | 287 nM | CC(C)(C)OC(=O)N1CCC(n2cnc3c(Nc4ccc(C#N)cc4F)ncnc32)CC1 [Example 4, tert-Butyl 4-(6-(4-cyano-2-fluorophenylamino)-9H-purin-9-yl)piperidine-1-carboxylate] |
| 0.56 | 263 nM | CCc1cnc(N2CCC(n3nnc4c(Nc5ccc(S(C)(=O)=O)cc5F)ncnc43)CC2)nc1 [Example 9, 3-(1-(5-Ethylpyrimidin-2-yl)piperidin-4-yl)-N-(2-fluoro-4-(methylsulfonyl)phenyl)-3H-[1,2,3]triazolo[4,5-d]pyrimidin-7-amine] |
| 0.67 | 218 nM | CS(=O)(=O)c1ccc(Nc2ncnc3c2nnn3C2CCN(c3ncccn3)CC2)c(F)c1 [Example 8, N-(2-Fluoro-4-(methylsulfonyl)phenyl)-3-(1-(pyrimidin-2-yl)piperidin-4-yl)-3H-[1,2,3]triazolo[4,5-d]pyrimidin-7-amine] |
| 0.47 | 203 nM | CS(=O)(=O)c1ccc(Nc2ncnc3c2cnn3C2CCN(C(=O)OCc3ccccc3)CC2)c(F)c1 [Example 12, Benzyl 4-(4-(2-fluoro-4-(methylsulfonyl)phenylamino)-1H-pyrazolo[3,4-d]pyrimidin-1-yl)piperidine-1-carboxylate] |
| 0.86 | 140 nM | CC(C)OC(=O)N1CCC(n2nnc3c(Nc4ccc(S(C)(=O)=O)cc4F)ncnc32)CC1 [Example 6, iso-Propyl 4-(7-(2-fluoro-4-(methylsulfonyl)phenylamino)-3H-[1,2,3]triazolo[4,5-d]pyrimidin-3-yl)piperidine-1-carboxylate] |
| 1.11 | 81.8 nM | CCCc1cnc(N2CCC(n3ncc4c(Nc5ccc(S(C)(=O)=O)cc5F)ncnc43)CC2)nc1 [Example 16, N-(2-Fluoro-4-(methylsulfonyl)phenyl)-1-(1-(5-propylpyrimidin-2-yl)piperidin-4-yl)-1H-pyrazolo[3,4-d]pyrimidin-4-amine] |
| 0.94 | 76.2 nM | CCc1cnc(N2CCC(n3ncc4c(Nc5ccc(S(C)(=O)=O)cc5F)ncnc43)CC2)nc1 [Example 15, 1-(1-(5-Ethylpyrimidin-2-yl)piperidin-4-yl)-N-(2-fluoro-4-(methylsulfonyl)phenyl)-1H-pyrazolo[3,4-d]pyrimidin-4-amine] |
| 0.68 | 74.9 nM | CC(C)OC(=O)N1CCC(n2nnc3c(Nc4ccc(S(C)(=O)=O)cc4Cl)ncnc32)CC1 [Example 7, iso-Propyl 4-(7-(2-chloro-4-(methylsulfonyl)phenylamino)-3H-[1,2,3]triazolo[4,5-d]pyrimidin-3-yl)piperidine-1-carboxylate] |
| – | 19.5 nM | CC(C)(C)OC(=O)N1CCC(n2nnc3c(Nc4ccc(S(C)(=O)=O)cc4F)ncnc32)CC1 [Example 3, tert-Butyl 4-(7-(2-fluoro-4-(methylsulfonyl)phenylamino)-3H-[1,2,3]triazolo[4,5-d]pyrimidin-3-yl)piperidine-1-carboxylate] |
